Values of other authors in patent US20200113899A1, “STATIN COMPOSITIONS AND METHODS FOR USE IN TREATING SYNUCLEINOPATHIES” (CHASE THERAPEUTICS CORPORATION, priority 2017, published 2020).

Assays:
alpha-synuclein [1] = settings: Parkinson patients, therapeutic doses, compared with pre-treatment values; magnitude of the effect small
[2] = 535 PD patients
[3] = pramipexole 5 mg/day
alpha-synuclein [4] = settings: transgenic mouse models

## CCCN[C@H]1CCc2nc(N)sc2C1 [pramipexole, (S)-6-propylamino-4,5,6,7-tetrahydro-1,3-benzothiazole-2-amine]
alpha-synuclein [1]
  relative expression of alpha-synuclein: significantly lowered
[2]
  neuroprotective (disease modifying) activity: failed to evidence neuroprotective (i.e., disease modifying) activity
[3]
  patients with nausea: 76%
  patients with vomiting: 39%
[3]; presumably because of intolerable GI adverse events
  patients not able to complete the study: 36%

## CC[C@H](C)C(=O)O[C@H]1C[C@@H](C)C=C2C=C[C@H](C)[C@H](CC[C@@H]3C[C@@H](O)CC(=O)O3)[C@H]21 [lovastatin, (1S,3R,7S,8S,8aR)-8-{2-[(2R,4R)-4-Hydroxy-6-oxooxan-2-yl]ethyl}-3,7-dimethyl-1,2,3,7,8,8a-hexahydronaphthalen-1-yl (2S)-2-methylbutanoate]
alpha-synuclein [4]
  alpha-synuclein accumulation and oxidation: ameliorated

## CC(C)c1nc(N(C)S(C)(=O)=O)nc(-c2ccc(F)cc2)c1/C=C/[C@@H](O)C[C@@H](O)CC(=O)O [rosuvastatin, (3R,5S,6E)-7-[4-(4-Fluorophenyl)-2-(N-methylmethanesulfonamido)-6-(propan-2-yl)pyrimidin-5-yl]-3,5-dihydroxyhept-6-enoic acid]
SH-SY5Y cells
  effect against rotenone-induced neurotoxicity: neuroprotective effect
  α-synuclein expression: modulation
